Experiment: Reference Example: half-life period and stabilization degree from QH residual rate after 14 days storage
Format: physicochemical
Settings: for Half-life Period: number of days required for the QH residual rate to reach 50%, from storage at 25° C. and 60% RH for 14 days
Experimental: The reduced coenzyme Q10 Form I crystal (Form I-crystal), the particulate solid composition produced using the reduced coenzyme Q10 Form I crystal in the same manner as in Comparative Example 1 (Form I-stabilized composition), the reduced coenzyme Q10 Form II crystal (Form II-crystal), and the particulate solid composition produced using the reduced coenzyme Q10 Form II crystal in the same manner as in Example 1 (A-1) (Form II-stabilized composition) were stored at 25° C. and 60% RH for 14 days. From the QH residual rate after storage, the half-life period, which is the number of days required for the QH residual rate to reach 50%, and the stabilization degree, which is the ratio of the half-life period of the stabilized composition to the half-life period of each crystal, were determined and shown in Table 17.

## COc1c(O)c(C)c(C/C=C(\C)CC/C=C(\C)CC/C=C(\C)CC/C=C(\C)CC/C=C(\C)CC/C=C(\C)CC/C=C(\C)CC/C=C(\C)CC/C=C(\C)CCC=C(C)C)c(O)c1OC [Form I - crystal, reduced coenzyme Q10]
  Half-life Period: 14 days

## COc1c(O)c(C)c(C/C=C(\C)CC/C=C(\C)CC/C=C(\C)CC/C=C(\C)CC/C=C(\C)CC/C=C(\C)CC/C=C(\C)CC/C=C(\C)CC/C=C(\C)CCC=C(C)C)c(O)c1OC [Form II - crystal, reduced coenzyme Q10]
25° C. and 60% RH
  stability relative to the Form I crystal: 14 times
  Half-life Period: 189 days

— patent US20250205176A1, “SOLID COMPOSITION CONTAINING FORM II-TYPE CRYSTAL OF REDUCED COENZYME Q10” (KANEKA CORPORATION, priority 2022, published 2025)
